We go through two compounds from paper PMC6017844, “4-Thiazolidinone Derivatives as MMP Inhibitors in Tissue Damage: Synthesis, Biological Evaluation and Docking Studies” (Molecules : A Journal of Synthetic Chemistry and Natural …, 2018).

Like-named read-outs stand apart in the source and are kept apart here.

Series [1] in a line: Oxygen Radical Absorbance Capacity (ORAC) assay. Particulars: for ORAC UNITs: fluorescein 10 nM, AAPH 100 mM, 37 °C, pH 7.0, mean ± SD (n = 3), Trolox = 1 ORAC Units. From the text:
Free radicals and ROS are highly reactive molecules that are generated by normal cellular processes. They react with cellular components, damaging DNA, carbohydrates, proteins, and lipids causing cellular and tissue injury. Although organisms have developed complex antioxidant systems to protect themselves from oxidative substances, an excess of ROS production can lead to inflammation and several disease state. ORAC test measures both lipophilic and hydrophilic antioxidant capacity and determines the ability of antioxidants to protect proteins from damage caused by free radicals. ORAC assay has been widely accepted as a standard in vitro to measure the antioxidant activity of synthetic compounds, measuring their capacity to transfer hydrogen atom. The assay measures the loss of fluorescence over time due to peroxyl-radical formation by the breakdown of 2,2′-azobis-2-methyl-propanimidamide dihydrochloride (AAPH). 6-Hydroxy-2,5,7,8-tetramethylchroman-2-carboxylic acid (Trolox), a water soluble vitamin E analog, is a positive control that inhibits the fluorescein decay in a dose dependent manner. The ORAC assay is a kinetic assay measuring fluorescein decay and antioxidant protection over time.
The ORAC assay was performed as previously reported by Cao et al.. The measurements were carried out on a Wallac 1420 Victor^3 96-well plate reader (EG & Wallac, Turku, Finland) with fluorescence filter ([…]). Fluorescein (10 nM) was the fluorescence probe and target molecule for free radical attack from AAPH (100 mM) as peroxyl radical generator. The reaction was conducted at 37 °C at pH 7.0 with Trolox (12.5 μM) as control standard and phosphate buffer as blank. Compounds 13–19 and 22–23 were appropriately diluted with DMSO/buffer (1:10) prior to analysis. The fluorescein fluorescence was recorded every 2 min after addition of AAPH. All measurements were expressed relative to the initial reading. One blank, one standard, and a maximum of 10 samples were analyzed at the same time. Each measure was repeated at least three times. The ORAC value refers to the net protection area under the quenching curve of fluorescein in the presence of an antioxidant. The final results (ORAC value) were calculated and expressed using Trolox equivalents (TE) per gram of extract (TE/g):ORAC value (μM) = K(S sample − S blank)/(S Trolox − S blank)(1) where K is a sample dilution factor, S is the area under the fluorescence decay curve of the sample, Trolox or blank. This area was calculated with Origin®7 (OriginLab Corporation, Northampton, MA, USA).

In another series the target is T1, human recombinant MMP-9 (Homo sapiens, UniProt P14780).
T1 construct: using 10 nM of proteolytic enzyme (catalytic domains of MMP-9 (Biomol, Inc.)); purchased Biomol, Inc
T1 sequence (P14780 107-444 limits assumed): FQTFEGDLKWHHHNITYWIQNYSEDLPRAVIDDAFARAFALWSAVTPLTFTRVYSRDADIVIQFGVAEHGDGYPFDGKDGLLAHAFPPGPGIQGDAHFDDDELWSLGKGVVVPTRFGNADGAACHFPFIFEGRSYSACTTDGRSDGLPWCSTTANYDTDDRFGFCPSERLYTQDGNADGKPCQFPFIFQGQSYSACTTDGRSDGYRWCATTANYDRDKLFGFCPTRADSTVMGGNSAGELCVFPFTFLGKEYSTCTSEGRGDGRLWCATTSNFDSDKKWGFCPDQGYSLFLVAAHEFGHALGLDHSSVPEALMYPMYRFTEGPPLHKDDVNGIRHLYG
The series can be described thus: MMP-9 fluorimetric assay. The format is biochemical. Here is the method: The synthesized compounds 13–19, 22 and 23 were tested for their in vitro ability to inhibit human recombinant MMP-9. Table 2 reports the results of this inhibition assay, expressed as IC50 (µM). […] We used as positive control a potent MMPs inhibitor, NNGH (N-isobutyl-N-(4-methoxy-phenylsulfonyl)glycylhydroxamic acid).
The compounds were evaluated for their ability to inhibit the hydrolysis of fluorescence-quenched peptide substrate Mca-Pro-Leu-Gly-Leu-Dpa-Ala-Arg-NH2 (Biomol, Inc., Enzo Life Sciences, Inc., Farmingdale, NY, USA). The MMP-9 assays were performed in 50 mM HEPES buffer containing 5 mM CaCl2, 0.1 mM ZnCl2, 0.05% Brij-35, at pH 7, using 10 nM of proteolytic enzyme (catalytic domains of MMP-9 (Biomol, Inc.) and 350 nM of peptide substrate. The enzyme was incubated at 25 °C with increasing concentration (0.0004, 0.004, 0.04, 0.4, 4, 40, 400 µM) of compounds, and the fluorescence (excitation max 328 nm; emission max 393 nm) was measured for 3 min after the addition of the substrate using a Victor Wallac 1420 Multilabel Counters fluorimeter (Perkin Elmer, Waltham, MA, USA). The fluorescence values of the samples were plotted against the time with a linear regression fit, using the Origin software, version 7 (Origin Lab Corporation, Northampton, MA, USA). The slope of the line value for each inhibitor concentrations was obtained where an increase of the slope corresponds to a decrease of inhibitory activity. Subsequently, the IC50 values were obtained from a non-linear regression procedure (log inhibitor vs. response) with a variables slope of the regression line (Y) and the molar inhibitor concentration (X), using the software Origin®7 (Origin Lab Corporation). The IC50 value was obtained from the equation Y = P1/(1 + X/P2). NNGH (N-Isobutyl-N-(4-methoxyphenylsulfonyl)glycylhydroxamic acid) a potent MMPs inhibitor was used as a positive control.

The next series relates to NF-κB. The series is described as follows: NF-κB levels by Western blot analysis. It is filed as cell-based, human. Particulars: NCTC 2544 stimulated with IFN-γ and histamine, 10 µM, 48 h, in words. From the text: The treatment of keratinocyte cell line NCTC 2544 with 200 U/mL of IFN-γ and 10^−4 M of H increased NF-κB levels compared to untreated cells. IFN-γ is an essential cytokine in amplifying inflammatory reactions, as it stimulates the synthesis of chemokines that attract inflammatory cells and induces expression of molecules important for the retention and activation of T cells. We employed both IFN-γ and histamine because they use distinct signal transduction pathways, and this can lead to a stronger activation of inflammatory genes. […] Stimulated keratinocytes were treated with compounds 22 and 23 and the levels of NF-κB were measured after 48 h. […]
The normal human keratinocyte cell line NCTC 2544 was provided by Interlab Cell Line Collection Genoa (Genova, Italy) and cultured in Minimum Essential Medium (MEM) (Sigma-Aldrich, Milan, Italy) containing 10% fetal calf serum, 100 U/mL penicillin and 100 μg/mL streptomycin at 37 °C in a humidified, 95% air/5% CO2 atmosphere. […] A day before the experiment, cells were trypsinized, counted, and plated either in 96 wells or in 6 well plates. […]
The expression of nuclear factor kappa-light-chain-enhancer of activated B cells (NF-κB) was evaluated by Western blot analysis. […] Bands were measured densitometrically and their relative density was calculated based on the density of the […] in each sample. […]

With `CC(C(=O)NN1C(=O)CSC1c1ccc(O)cc1)c1nsc2ccccc12` (stereo not shown) [Compound 22, 2-(1,2-Benzothiazol-3-yl)-N-[2-(4-hydroxyphenyl)-4-oxo-1,3-thiazolidin-3-yl]propanamide], the melting point was 257 to 259 °C. Further, the “antioxidant activity in words” value in series [1] (delay of fluorescence reduction of fluorescein-AAPH solution) is “excellent antioxidant effectiveness”. Further, the “ORAC UNITs” value in series [1] is 1.24 ± 0.09 ORAC unit (μmol of Trolox equi. The IC50 at human recombinant MMP-9 (catalytic domain of MMP-9 10 nM, substrate 350 nM, 25 °C, pH 7, mean ± SD (n = 3), n.a. = not active, read-out: IC50 Value) worked out at 300 ± 50 nM. Also, the “effect on NF-κB release” value with NF-κB is “reduced NF-κB release”.
On to `CC(C(=O)NN1C(=O)CSC1c1ccc(C(=O)O)cc1)c1nsc2ccccc12` (stereo not shown) [Compound 23, 4-(3-{[2-(1,2-Benzothiazol-3-yl)propanoyl]amino}-4-oxo-1,3-thiazolidin-2-yl)benzoic acid], for which the melting point was in the range of 137 to 140 °C. In series [1], the ORAC value is given as 0.53 TE/µmol and the “ORAC UNITs” value is given as 0.53 ± 0.17 ORAC unit (μmol of Trolox equi. On human recombinant MMP-9 (read-out: IC50 (MMP-9)), the 50% inhibitory concentration (IC50) turned out to be 40 nM. For the same compound, the “effect on NF-κB release” value in the series with NF-κB is “reduced NF-κB release”.
